Here are results for 1 substance from US20210102200A1, “SMALL MOLECULE TARGETED RECRUITMENT OF A NUCLEASE TO RNA” (The Scripps Research Institute, priority 2018, published 2021).

In general, Kd refers to the equilibrium constant for the complex coming apart. Lower therefore signals tighter binding.

In one test the target is pre-miR-210 mimic. The test can be described thus: Microscale thermophoresis binding, miR-210 Hairpin RNA. As to conditions: MST. The procedure:
MST fluorescent measurements were performed on a Monolith NT.115 system (NanoTemper Technologies) using the fluorescence of a 5′-Cy5 labeled miR-210 Hairpin RNA (5′—Cy5 […]) (SEQ ID NO: 11), a 5′-Cy5 miR-210 Mutant RNA (5′—Cy5 […]) (SEQ ID NO: 12), or a 5′ Cy5 DNA Hairpin (5′—Cy5 […]) (SEQ ID NO: 13) which were purchased from IDT with RNase-free HPLC purification and used without further purification. The RNA (5 nM) was prepared in 1×MST Buffer (8 mM Na2HPO4, 190 mM NaCl, 1 mM EDTA, and 0.05% (v/v) Tween-20) and folded by heating at 60° C. for 5 min, and slowly cooling to room temperature. Compounds (TGP-210 or TGP-210-RL) were diluted in 1×MST Buffer and then were added to a final concentration of 20 μM, followed by 1:2 dilutions in 1×MST Buffer containing 5 nM RNA. Alternatively, RNase L in 1×MST Buffer was added to a final concentration of 50 nM in addition to compound and RNA. […] Fluorescence measurements (Ex: 605-645 nm, Em: 680-685 nm) were performed at 20% LED and 80% MST power, with a Laser-On time of 30 s and Laser-Off time of 5 s. The data were analyzed by thermophoresis analysis and fitted by the quadratic binding equation in MST analysis software (NanoTemper Technologies). Dissociation constants were then determined by curve fitting using a single-site model.
In general terms: In MST a laser heats a spot of the sample, and binding alters the fluorescence response.

The test system of a further test is mature miR-210. The test can be described thus: Mature miR-210 levels in hypoxic MDA-MB-231 cells by RT-qPCR. The format is cell-based. The procedure: (§1) MDA-MB-231 (HTB-26; ATCC) cells were cultured in Roswell Park Memorial Institute (RPM I) 1640 media with L-glutamine & 25 mM HEPES (Corning) supplemented with 10% fetal bovine serum (FBS) (Sigma) and 1×Penicillin Streptomycin Solution (Corning). Cells cultured in normoxia were maintained at 37° C. in ambient atmosphere (˜21% O2) with 5% CO2. Cells cultured in hypoxia were maintained at 37° C., <1% O2 in a nitrogen filled hypoxic chamber (Billups-Rothenberg, Inc.), and 5% CO2. Cells were directly purchased from ATCC, but were not authenticated.
(§2) For compound treatment (TGP-210, TGP-210-RL, LNA-210, Scr-LNA), compound stocks in DMSO or water were diluted in growth medium and added to cells for 24-48 h. […]
(§3) MDA-MB-231 cells were treated in normoxic or hypoxic conditions for 24-48 h, as described above in the Experimental Model and Subject Details section. […] RNA expression levels were determined using the ΔΔCt method and normalized using 18S ribosomal RNA or U6 small nuclear RNA as housekeeping genes. […] Upon treatment with chimeric compound TGP-210-RL, relative cleavage levels were calculated according to equation 1A (Eq. 1A) in order to control for the effect of parent compound TGP-210, on pre-miR-210 expression: […]
(In general: Real-time PCR tracks product formation cycle by cycle.)

A further test concerns pre-miR-210. The test can be described thus: pre-miR-210 levels / cleavage in hypoxic MDA-MB-231 cells by RT-qPCR. The format is cell-based. The procedure:
as §1, §2, §3

The subject of test [1] is triple negative breast cancer. As to conditions: triple negative breast cancer mouse model; cited from earlier work.

On pre-miR-210 mimic, Targapremir-210 [TGP-210] yielded a Kd of 160 nM. The “Levels of mature miR-210” value in the test on mature miR-210 is “decreased”. Also, the “Cleavage of pre-miR-210 by TGP-210-RL upon addition of TGP-210” value with pre-miR-210 (constant TGP-210-RL, increasing amounts of TGP-210) is “caused a decrease in cleavage of pre-miR-210”. Further, in the test with pre-miR-210 (hypoxic MDA-MB-231 cells), the pre-miR-210 levels entry is “increase”. The Tumor growth result in test [1] is given as “inhibited tumor growth”.
